Molecular target: CREBBP (Homo sapiens (Human), UniProt Q92793)
Experiment: In vitro enzyme inhibition assay - CREBBP inhibition (AlphaScreen, biotinylated H4-tetraacetyl peptide)
Type: binding
Conditions: Table 28; AlphaScreen, H4-tetraacetyl peptide
How it was run: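 His-tagged CREBBP expressed in E. coli (50 nM final) incubated with biotinylated H4K5/8/12/16(Ac) peptide (20 nM final) in HEPES pH 7.3 buffer, 0.4% DMSO, 20 min at room temperature.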

Chain of CREBBP (Q92793 1081-1197): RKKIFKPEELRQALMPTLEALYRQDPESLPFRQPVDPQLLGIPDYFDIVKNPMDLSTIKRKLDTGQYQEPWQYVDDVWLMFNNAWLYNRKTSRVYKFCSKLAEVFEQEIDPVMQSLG

Row | SMILES | IC50
1 | Cc1c(NS(=O)(=O)C(C)C)nc(Oc2ccc(F)cc2F)nc1-c1cc(C)c(=O)n(C)c1 [Example 165, Propane-2-sulfonic acid [2-(2,4-difluoro-phenoxy)-6-(1,5-dimethyl-6-oxo-1,6-dihydro-pyridin-3-yl)-5-methyl-pyrimidin-4-yl]-amide] | < 500 nM
2 | CCC(F)(F)S(=O)(=O)Nc1cc(-c2ccc(=O)n(C)c2)nc(Oc2c(C)cccc2F)n1 [Example 166, 1,1-Difluoro-propane-1-sulfonic acid [2-(2-fluoro-6-methyl-phenoxy)-6-(1-methyl-6-oxo-1,6-dihydro-pyridin-3-yl)-pyrimidin-4-yl]-amide] | < 500 nM
3 | CCC(F)(F)S(=O)(=O)Nc1cc(-c2cc(C)c(=O)n(C)c2)nc(Oc2c(C)cccc2F)n1 [Example 167, 1,1-Difluoro-propane-1-sulfonic acid [6-(1,5-dimethyl-6-oxo-1,6-dihydro-pyridin-3-yl)-2-(2-fluoro-6-methyl-phenoxy)-pyrimidin-4-yl]-amide] | < 500 nM
4 | CCC(F)S(=O)(=O)Nc1cc(-c2ccc(=O)n(C)c2)nc(Oc2c(C)cccc2F)n1 (stereo not drawn) [Example 168, 1-Fluoro-propane-1-sulfonic acid [2-(2-fluoro-6-methyl-phenoxy)-6-(1-methyl-6-oxo-1,6-dihydro-pyridin-3-yl)-pyrimidin-4-yl]-amide] | < 500 nM
5 | CCC(F)S(=O)(=O)Nc1cc(-c2cc(C)c(=O)n(C)c2)nc(Oc2c(C)cccc2F)n1 (stereo not drawn) [Example 169, 1-Fluoro-propane-1-sulfonic acid [6-(1,5-dimethyl-6-oxo-1,6-dihydro-pyridin-3-yl)-2-(2-fluoro-6-methyl-phenoxy)-pyrimidin-4-yl]-amide] | < 500 nM
6 | CCC(F)(F)S(=O)(=O)Nc1cc(-c2ccc(=O)n(C)c2)nc(Oc2c(C)cccc2Cl)n1 [Example 170, 1,1-Difluoro-propane-1-sulfonic acid [2-(2-chloro-6-methyl-phenoxy)-6-(1-methyl-6-oxo-1,6-dihydro-pyridin-3-yl)-pyrimidin-4-yl]-amide] | < 500 nM
7 | CCS(=O)(=O)Nc1nc(Oc2c(C)cccc2F)nc(-c2cc(C)c(=O)n(C)c2)n1 [Example 171, Ethanesulfonic acid [4-(1,5-dimethyl-6-oxo-1,6-dihydro-pyridin-3-yl)-6-(2-fluoro-6-methyl-phenoxy)-[1,3,5]triazin-2-yl]-amide] | < 500 nM
8 | Cc1cccc(F)c1Oc1nc(NS(=O)(=O)C(C)C)nc(-c2cc(C)c(=O)n(C)c2)n1 [Example 172, Propane-2-sulfonic acid [4-(1,5-dimethyl-6-oxo-1,6-dihydro-pyridin-3-yl)-6-(2-fluoro-6-methyl-phenoxy)-[1,3,5]triazin-2-yl]-amide] | < 500 nM
9 | CCCS(=O)(=O)Nc1nc(Oc2c(C)cccc2F)nc(-c2cc(C)c(=O)n(C)c2)n1 [Example 173, Propane-1-sulfonic acid [4-(1,5-dimethyl-6-oxo-1,6-dihydro-pyridin-3-yl)-6-(2-fluoro-6-methyl-phenoxy)-[1,3,5]triazin-2-yl]-amide] | < 500 nM
10 | CCCCS(=O)(=O)Nc1nc(Oc2c(C)cccc2F)nc(-c2cc(C)c(=O)n(C)c2)n1 [Example 174, Butane-1-sulfonic acid [4-(1,5-dimethyl-6-oxo-1,6-dihydro-pyridin-3-yl)-6-(2-fluoro-6-methyl-phenoxy)-[1,3,5]triazin-2-]-amide] | < 500 nM
11 | CCS(=O)(=O)Nc1nc(Oc2c(C)cccc2F)nc(-c2ccc(=O)n(C)c2)n1 [Example 175, Ethanesulfonic acid [4-(2-fluoro-6-methyl-phenxoy)-6-(1-methyl-6-oxo-1,6-dihydro-pyridin-3-yl)-[1,3,5]triazin-2-yl]-amide] | < 500 nM
12 | Cc1cccc(F)c1Oc1nc(NS(=O)(=O)C(C)C)nc(-c2ccc(=O)n(C)c2)n1 [Example 176, Propane-2-sulfonic acid [4-(2-fluoro-6-methyl-phenoxy)-6-(1-methyl-6-oxo-1,6-dihydro-pyridin-3-yl)-[1,3,5]triazin-2-yl]-amide] | < 500 nM

Source: patent publication US10202360B2 (CELGENE QUANTICEL RESEARCH, INC., priority 2016, dated 2019)
